Experiments:
[1] = system: epidermal stem cells; assay: Culturing of fresh human skin with agents, fluorescent immunostaining for Ki-67 and MCSP; assay type: cell-based; conditions: fresh human abdominal skin, final concentration 0.01%
Experimental: Fresh skin samples taken from the abdominal regions of participants (aged 20 to 30) with informed consent were purchased from KAC Co., Ltd. The samples were cultured in medium comprising an equal mixture of 10% FBS-DMEM (Thermo Fisher Scientific K.K., 11885084) and Humedia-KG2 (KURABO Industries Ltd., KK-2150S) with addition of 1-(2-hydroxyethyl)-2-imidazolidinone (“S173”, final concentration: 0.01%), which has an effect of inhibiting both MMP-9 and heparanase, […]”, final concentration: 0.01%), or a combination of 1-(2-hydroxyethyl)-2-imidazolidinone and […]”, final concentration: 0.01%). As a control, culturing was carried out in medium containing an equal amount of DMSO solvent lacking these agents. Medium was exchanged daily, and skin tissue slices were collected on the 2nd day (Day2). Following the AMeX method, fresh human skin was dehydrated and fixed using cold acetone and exchanged with acetone, methyl benzoate and xylene in that order, and then embedded in paraffin. Slices with thicknesses of 3 μm were prepared for tissue staining. Paraffin slices cut to 3 μm thicknesses were deparaffinized with xylene and hydrated using EtOH. Antibodies for Ki-67 (SP6) (Thermo Fisher Scientific K.K., RM-9106-S, rabbit […] monoclonal antibody) and antibodies for MCSP (melanoma-associated chondroitin sulphate proteoglycan) (Millipore, MAB2029, 9.2.27, mouse monoclonal antibody) were used for fluorescent immunostaining.

[2] = system: epidermal stem cells; conditions: disclosed in NPL 1 (Iriyama et al., Scientific Reports 2020); cited from earlier work
[3] = Day2, compared to control without addition of agent (Day2 control)

O=C1NCCN1CCO [S173, 1-(2-hydroxyethyl)-2-imidazolidinone]
number of Ki67-positive cells (cell proliferation marker) [1, 3]: increased
number of MCSP-positive cells (epidermal basal stem cell marker) [1, 3]: increased
number of Ki67+MCSP-positive cells ([1]; Day2, compared to the control): increased
number of stem cells (MCSP-positive) relative to Day0 ([1]; after culturing for 2 days, compared to Day0 level): maintained at the level of Day0
effect on epidermal stem cell counts [2]: maintaining epidermal stem cell counts

From patent US20250041189A1, “STEM CELL PROLIFERATION PROMOTER” (SHISEIDO COMPANY, LTD., priority 2021, published 2025)
